# The supplement of paper PMC10307832
# Experiments:
# Assay in all cases: relative viability (nuclei count vs DMSO), 5 days (fraction); higher = more cells survive
# Crenolanib + Navitoclax = compound: CC1(COc2ccc3c(c2)ncn3-c2ccc3cccc(N4CCC(N)CC4)c3n2)COC1 [Crenolanib] + CC1(C)CCC(c2ccc(Cl)cc2)=C(CN2CCN(c3ccc(C(=O)NS(=O)(=O)c4ccc(N[C@H](CCN5CCOCC5)CSc5ccccc5)c(S(=O)(=O)C(F)(F)F)c4)cc3)CC2)C1 [Navitoclax] (partner 0.5 µM)
# Outline: (§1)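 A single step with final 0.05% Triton X-100, 1% formaldehyde and 1 ug/ml Hoechst fixed the cells and stained nuclei 5 days after treatment. Lung cancer cell lines in 1536-well plates had been treated by pin tool the day after seeding with one drug alone or a fixed anchor-drug dose plus five library-drug doses (not always all listed) in √10 steps, and nuclei were counted on 4× images. Relative viability is the ratio of nuclei in treated wells to nuclei in vehicle wells, taken as the median of duplicate plates.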
# Crenolanib + Bortezomib = compound: CC1(COc2ccc3c(c2)ncn3-c2ccc3cccc(N4CCC(N)CC4)c3n2)COC1 [Crenolanib] + CC(C)C[C@H](NC(=O)[C@H](Cc1ccccc1)NC(=O)c1cnccn1)B(O)O [Bortezomib] (partner 0.002 µM)
# Outline: as §1
# Tivantinib + Alpelisib = compound: O=C1NC(=O)[C@@H](c2cn3c4c(cccc24)CCC3)[C@@H]1c1c[nH]c2ccccc12 [Tivantinib] + Cc1nc(NC(=O)N2CCC[C@H]2C(N)=O)sc1-c1ccnc(C(C)(C)C(F)(F)F)c1 [Alpelisib] (partner 2 µM)
# Outline: as §1
# Crenolanib + Linsitinib = compound: CC1(COc2ccc3c(c2)ncn3-c2ccc3cccc(N4CCC(N)CC4)c3n2)COC1 [Crenolanib] + C[C@]1(O)C[C@@H](c2nc(-c3ccc4ccc(-c5ccccc5)nc4c3)c3c(N)nccn32)C1 [Linsitinib] (partner 1 µM)
# Outline: as §1
cell line,measurement,setting,value
UMC-11,relative viability,Crenolanib + Navitoclax; first compound 0.01 µM,0.333
same,relative viability,Crenolanib + Navitoclax; first compound 0.03162 µM,0.331
same,relative viability,Crenolanib + Navitoclax; first compound 0.1 µM,0.301
same,relative viability,Crenolanib + Navitoclax; first compound 0.3162 µM,0.341
same,relative viability,Crenolanib + Navitoclax; first compound 1 µM,0.31
same,relative viability,Crenolanib + Bortezomib; first compound 0.01 µM,0.811
same,relative viability,Crenolanib + Bortezomib; first compound 0.03162 µM,0.753
same,relative viability,Crenolanib + Bortezomib; first compound 0.1 µM,0.703
same,relative viability,Crenolanib + Bortezomib; first compound 0.3162 µM,0.752
same,relative viability,Crenolanib + Bortezomib; first compound 1 µM,0.757
same,relative viability,Tivantinib + Alpelisib; first compound 0.01 µM,0.961
same,relative viability,Tivantinib + Alpelisib; first compound 0.03162 µM,0.939
same,relative viability,Tivantinib + Alpelisib; first compound 0.1 µM,0.876
same,relative viability,Tivantinib + Alpelisib; first compound 0.3162 µM,0.939
same,relative viability,Crenolanib + Linsitinib; first compound 0.01 µM,1.01
same,relative viability,Crenolanib + Linsitinib; first compound 0.03162 µM,0.997
same,relative viability,Crenolanib + Linsitinib; first compound 0.1 µM,0.978
same,relative viability,Crenolanib + Linsitinib; first compound 0.3162 µM,1.14
same,relative viability,Crenolanib + Linsitinib; first compound 1 µM,0.952
